Reference: patent publication EP0620225B1, “Cephalosporin derivatives” (Basilea Pharmaceutica AG, priority 1993, dated 1994)
In brackets after ≈: the same amount, converted by molar mass.

Assays:
Acinetobacter sp.51-156 = experiment: Antibacterial spectrum (MIC), agar dilution; format: cell-based; conditions: SP.51156, read-out: MIC
Experimental: (§1) In vitro activity was determined by minimum inhibitory concentration in a microorganism spectum by the agar dilution method in Mueller Hinton agar.

C.freundii 43 = experiment: Antibacterial spectrum (MIC), agar dilution; format: cell-based; conditions: Citrobacter freundii, read-out: MIC
Experimental: as §1

C.freundii 902 = experiment: Antibacterial spectrum (MIC), agar dilution; format: cell-based; conditions: Citrobacter freundii, read-out: MIC
Experimental: as §1

E.cloacae 908R = experiment: Antibacterial spectrum (MIC), agar dilution; format: cell-based; conditions: Enterobacter cloacae, read-out: MIC
Experimental: as §1

E.cloacae 908SSi = experiment: Antibacterial spectrum (MIC), agar dilution; format: cell-based; conditions: Enterobacter cloacae, read-out: MIC
Experimental: as §1

E.coli 25922 = experiment: Antibacterial spectrum (MIC), agar dilution; format: cell-based; conditions: Escherichia coli, read-out: MIC
Experimental: as §1

E.faecalis 6 = experiment: Antibacterial spectrum (MIC), agar dilution; format: cell-based; conditions: Enterococcus faecalis, read-out: MIC
Experimental: as §1

H.influenzae 1 = experiment: Antibacterial spectrum (MIC), agar dilution; format: cell-based; conditions: Haemophilus influenzae, read-out: MIC
Experimental: as §1

K.pneumoniae 418 = experiment: Antibacterial spectrum (MIC), agar dilution; format: cell-based; conditions: Klebsiella pneumoniae, read-out: MIC
Experimental: as §1

L.monocytogenes BK23 = experiment: Antibacterial spectrum (MIC), agar dilution; format: cell-based; conditions: Listeria monocytogenes, read-out: MIC
Experimental: as §1

M.catarrhalis RA21 = experiment: Antibacterial spectrum (MIC), agar dilution; format: cell-based; conditions: Moraxella catarrhalis, read-out: MIC
Experimental: as §1

M.morganii 6H-137 = experiment: Antibacterial spectrum (MIC), agar dilution; format: cell-based; conditions: Morganella morganii, 6H137, read-out: MIC
Experimental: as §1

N.meningitidis 69480 = experiment: Antibacterial spectrum (MIC), agar dilution; format: cell-based; conditions: Neisseria meningitidis, read-out: MIC
Experimental: as §1

P.aeruginosa 27853 = experiment: Antibacterial spectrum (MIC), agar dilution; format: cell-based; conditions: Pseudomonas aeruginosa, read-out: MIC
Experimental: as §1

P.mirabilis 2117 = experiment: Antibacterial spectrum (MIC), agar dilution; format: cell-based; conditions: Proteus mirabilis, read-out: MIC
Experimental: as §1

P.vulgaris 1028 = experiment: Antibacterial spectrum (MIC), agar dilution; format: cell-based; conditions: Proteus vulgaris, read-out: MIC
Experimental: as §1

S.agalactiae QK44 = experiment: Antibacterial spectrum (MIC), agar dilution; format: cell-based; conditions: Streptococcus agalactiae, read-out: MIC
Experimental: as §1

S.aureus 6538 = experiment: Antibacterial spectrum (MIC), agar dilution; format: cell-based; conditions: Staphylococcus aureus, read-out: MIC
Experimental: as §1

S.aureus 734 MRSA = experiment: Antibacterial spectrum (MIC), agar dilution; format: cell-based; conditions: Staphylococcus aureus, read-out: MIC
Experimental: as §1

S.marcescens 69438 = experiment: Antibacterial spectrum (MIC), agar dilution; format: cell-based; conditions: Serratia marcescens, read-out: MIC
Experimental: as §1

S.pneumoniae Q19 = experiment: Antibacterial spectrum (MIC), agar dilution; format: cell-based; conditions: Streptococcus pneumoniae, read-out: MIC
Experimental: as §1

S.pyogenes B15 = experiment: Antibacterial spectrum (MIC), agar dilution; format: cell-based; conditions: Streptococcus pyogenes, read-out: MIC
Experimental: as §1

S.viridans group 016 = experiment: Antibacterial spectrum (MIC), agar dilution; format: cell-based; conditions: Streptococcus viridans, read-out: MIC
Experimental: as §1

X.maltophilia 1AC739 = experiment: Antibacterial spectrum (MIC), agar dilution; format: cell-based; conditions: Stenotrophomonas maltophilia, read-out: MIC
Experimental: as §1

S.aureus MSSA = experiment: In vitro activity against selected species (MIC50, MIC90, range); format: cell-based; conditions: Staphylococcus aureus, medium MHB (Mueller Hinton Broth)
S.pneumoniae PEN-R = experiment: as above; format: cell-based; conditions: Streptococcus pneumoniae; for MIC: MIC range
S.viridans group = experiment: as above; format: cell-based; conditions: Streptococcus viridans
E.faecalis [1] = experiment: as above; format: cell-based; conditions: Enterococcus faecalis, medium MHA
Experimental: as §1

S.aureus MRSA = experiment: as above; format: cell-based; conditions: Staphylococcus aureus, medium MHA (Mueller Hinton Agar) +NaCl
Experimental: as §1

E.faecium = experiment: In vitro activity against selected species (MIC50, range); format: cell-based; conditions: Enterococcus faecium, medium MHA
Experimental: as §1

M.catarrhalis = experiment: In vitro activity against selected species (MIC50, MIC90, range); format: cell-based; conditions: Moraxella catarrhalis, medium IsoB
Escherichia coli 25922 = experiment: Efficacy against systemic infections (septicemia) in mice; format: in vivo; conditions: 96 h, survival day 4
Experimental: (§2) Septicemia was induced in outbred Swiss albino mice (Jbm MoRo [specific pathogen free]; weight 16 to 20 g, Biomedical Research Laboratories, Füllinsdorf, Switzerland). Mice were infected by intraperitoneal injection of diluted overnight cultures of the test organisms. Bacterial challenge doses were 4-10 times the number of organisms required to kill 50% of untreated animals within 48 h. The test compounds were administered p.o. or s.c. 1 and 3 h after the bacterial challenge. To treat the infection with Pseudomonas aeruginosa BA an additional dose was given 5 h after challenge. Control and treatment groups at each dose were composed of five mice each. The 50% effective dose (ED50, in milligrams per kilogram) was calculated by probit analysis as described by Finney (Finney, D.J. 1978, Statistical method in biological assay, 3rd ed. Charles Griffin & Co., Ltd., London), from the survival rates on day 4 after infection.

S.aureus Smith = experiment: as above; format: in vivo; conditions: Staphylococcus aureus, 96 h, sc 1 and 3 h after challenge, survival day 4
Experimental: as §2

E.faecalis [2] = experiment: In vitro activity against selected species (MIC50, MIC90, range); format: cell-based; conditions: Enterococcus faecalis, medium IsoB
[3] = medium IsoB (Isosensitest Broth)

Which MIC (Acinetobacter sp.51-156) does the source give for `COc1ccc(N2CC/C(=C\C3=C(C(=O)O)N4C(=O)[C@@H](NC(=O)/C(=N\O)c5csc(N)n5)[C@H]4SC3)C2=O)cc1` [I] here?
The MIC was 32 µg/mL (≈ 56.1 µM).

And the MIC (C.freundii 43)?
Its MIC is 8 µg/mL (≈ 14 µM).

And the MIC (C.freundii 902)?
The MIC was 0.25 µg/mL (≈ 0.438 µM).

And the MIC (E.cloacae 908R)?
The MIC was 32 µg/mL (≈ 56.1 µM).

And the MIC (E.cloacae 908SSi)?
The MIC was 0.5 µg/mL (≈ 0.876 µM).

And the MIC (E.coli 25922)?
The MIC was 0.12 µg/mL (≈ 0.21 µM).

And the MIC (E.faecalis 6)?
Its MIC is 0.25 µg/mL (≈ 0.438 µM).

What about the MIC (H.influenzae 1) of the same compound?
Its MIC is 0.25 µg/mL (≈ 0.438 µM).

What about the MIC (K.pneumoniae 418) of the same compound?
Its MIC is 0.12 µg/mL (≈ 0.21 µM).

What about the MIC (L.monocytogenes BK23) of the same compound?
Its MIC is 2 µg/mL (≈ 3.51 µM).

And the MIC (M.catarrhalis RA21)?
The MIC was greater than 16 µg/mL.

And the MIC (M.morganii 6H-137)?
Its MIC is no more than 0.06 µg/mL.

What about the MIC (N.meningitidis 69480) of the same compound?
The MIC was no more than 0.06 µg/mL.

And the MIC (P.aeruginosa 27853)?
Its MIC is greater than 32 µg/mL.

And the MIC (P.mirabilis 2117)?
Its MIC is 0.12 µg/mL (≈ 0.21 µM).

And the MIC (P.vulgaris 1028)?
The MIC was 2 µg/mL (≈ 3.51 µM).

And the MIC (S.agalactiae QK44)?
The MIC was 0.25 µg/mL (≈ 0.438 µM).

What about the MIC (S.aureus 6538) of the same compound?
Its MIC is 0.5 µg/mL (≈ 0.876 µM).

What about the MIC (S.aureus 734 MRSA) of the same compound?
Its MIC is 8 µg/mL (≈ 14 µM).

What about the MIC (S.marcescens 69438) of the same compound?
Its MIC is 1 µg/mL (≈ 1.75 µM).

What about the MIC (S.pneumoniae Q19) of the same compound?
Its MIC is no more than 0.06 µg/mL.

And the MIC (S.pyogenes B15)?
Its MIC is no more than 0.06 µg/mL.

What about the MIC (S.viridans group 016) of the same compound?
Its MIC is 0.5 µg/mL (≈ 0.876 µM).

What about the MIC (X.maltophilia 1AC739) of the same compound?
The MIC was greater than 32 µg/mL.

What about the MIC (S.aureus MSSA; MIC range) of the same compound?
Its MIC is 0.5 to 1 µg/mL (≈ 0.876 to 1.75 µM).

And the MIC50 (S.aureus MSSA)?
Its MIC50 is 0.5 µg/mL (≈ 0.876 µM).

What about the MIC90 (S.aureus MSSA) of the same compound?
Its MIC90 is 0.5 µg/mL (≈ 0.876 µM).

And the MIC (S.pneumoniae PEN-R; [3])?
The MIC was 0.12 to 0.25 µg/mL (≈ 0.21 to 0.438 µM).

What about the MIC (S.pneumoniae PEN-R; medium IsoB + 20% serum) of the same compound?
Its MIC is 0.12 to 0.5 µg/mL.

What about the MIC50 (S.pneumoniae PEN-R; [3]) of the same compound?
The MIC50 was no more than 0.12 µg/mL.

And the MIC90 (S.pneumoniae PEN-R; [3])?
The MIC90 was no more than 0.12 µg/mL.

And the MIC50 (S.pneumoniae PEN-R; medium IsoB + 20% serum)?
Its MIC50 is 0.25 µg/mL.

What about the MIC50 (S.viridans group) of the same compound?
Its MIC50 is 0.5 µg/mL (≈ 0.876 µM).

And the MIC90 (S.viridans group)?
The MIC90 was 2 µg/mL (≈ 3.51 µM).

And the MIC (S.viridans group; MIC range)?
The MIC was 0.12 to 4 µg/mL (≈ 0.21 to 7.01 µM).

What about the MIC (E.faecalis [1]; MIC range) of the same compound?
Its MIC is 0.5 to 1 µg/mL (≈ 0.876 to 1.75 µM).

What about the MIC50 (E.faecalis [1]) of the same compound?
Its MIC50 is no more than 0.5 µg/mL.

What about the MIC90 (E.faecalis [1]) of the same compound?
The MIC90 was 1 µg/mL (≈ 1.75 µM).

And the MIC (S.aureus MRSA; MIC range)?
The MIC was 16 to 32 µg/mL (≈ 28 to 56.1 µM).

And the MIC50 (S.aureus MRSA)?
The MIC50 was 16 µg/mL (≈ 28 µM).

And the MIC90 (S.aureus MRSA)?
The MIC90 was 32 µg/mL (≈ 56.1 µM).

What about the MIC (E.faecium; MIC range) of the same compound?
The MIC was 0.1 to 16 µg/mL (≈ 0.175 to 28 µM).

And the MIC50 (E.faecium)?
Its MIC50 is 2 µg/mL (≈ 3.51 µM).

What about the MIC (M.catarrhalis; MIC range) of the same compound?
The MIC was 1 to 64 µg/mL (≈ 1.75 to 112 µM).

And the MIC50 (M.catarrhalis)?
The MIC50 was 8 µg/mL (≈ 14 µM).

And the MIC90 (M.catarrhalis)?
Its MIC90 is 16 µg/mL (≈ 28 µM).

And the ED50 (Escherichia coli 25922; Escherichia coli 25922, po (orally) 1 and 3 h after challenge)?
The ED50 was 4.5 mg/kg.

What about the ED50 (Escherichia coli 25922; Escherichia coli, E.coli 25922, sc 1 and 3 h after challenge) of the same compound?
The ED50 was less than 0.3 mg/kg.

What about the ED50 (S.aureus Smith) of the same compound?
The ED50 was less than 1 mg/kg.

What about the MIC (E.faecalis [2]; MIC range) of the same compound?
The MIC was 0.25 to 1 µg/mL (≈ 0.438 to 1.75 µM).

What about the MIC50 (E.faecalis [2]) of the same compound?
Its MIC50 is 0.5 µg/mL (≈ 0.876 µM).

And the MIC90 (E.faecalis [2])?
The MIC90 was 1 µg/mL (≈ 1.75 µM).
